Experimental data as given in PMC8587043, “An Investigation into the Interaction between Double Hydroxide-Based Antioxidant Benzophenone Derivatives and Cyclooxygenase 2” (Molecules, 2021).

Columns and labels:
EA.hy926 cells [1] = assay: Protective effect against H2O2-induced oxidative damage, MTT assay; type: cell-based, human; conditions: for EC50: protection against H2O2-induced damage (400 µmol·L^−1, 4 h), n = 3, mean ± SD
Method: Hydrogen peroxide (H2O2), a small molecule and functions as oxidative stress and a second messenger which contributes to cell damage or death, could directly induce inflammation in several cell lines. H2O2-induced cell damage is a commonly used model for antioxidant activity evaluation. […] Thus, the concentration of 400 µmol·L^−1 at 4 h was chosen as the model.
(§1) Compound SC2 stock solutions were prepared in DMSO. The stock solutions were diluted with FBS free DMEM to different target concentrations (DMSO concentrations ≤ 0.5% v:v). Cells (100 μL, 2 × 10^5 cells∙mL^−1) were seeded on 96-well plates and cultured for 24 h. The medium was then replaced with fresh media containing H2O2 with different concentrations (0, 100, 200, 300, 400, 500, and 600 μmol·L^−1 in FBS free DMEM) and compound SC2 (50, 40, 30, 20, 10 µmol·L^−1), which were transferred to the incubator and cultured for additional time (2, 4, and 6 h). The medium was then replaced with 100 μL of FBS free DMEM and MTT (10 μL, 5 mg·mL^−1 in PBS) and after 4 h the medium was replaced with DMSO (100 μL). A microplate reader (SpectraMaxPlus384, Molecular Devices, United States) was used to record the absorbance at 490 nm for each well of the plates. Cell viability was measured via MTT assay. Survival rate (%) = (Asample group/Acontrol group) × 100%.
Cells (100 μL, 2 × 10^5 cells·mL^−1) were seeded in 96-well plates for 24 h. Cells were treated with different groups and cell viability was measured via MTT assay. The protection rates to oxidative damage were determined and EC50 values were calculated. The protection rates to cells were calculated using the following formula: Protection rate (%) = (Apretreatment group − Amodel group)/(Acontrol group − Amodel group) × 100%.

COX2 = molecular target: T1, COX2 (Homo sapiens, UniProt P35354); assay: Fluorescence resonance energy transfer between COX2 and compound; type: binding; conditions: for J (effective spectral overlap): COX2 emission vs compound absorption, each 5.0 × 10^−8 mol∙L^−1; for r (separation distance between COX2 and compound): κ^2 = 2/3, N = 1.336, φ = 0.15
T1 construct: purchased Sino Biological Co. (Beijing, China)
T1 sequence (P35354 18-604): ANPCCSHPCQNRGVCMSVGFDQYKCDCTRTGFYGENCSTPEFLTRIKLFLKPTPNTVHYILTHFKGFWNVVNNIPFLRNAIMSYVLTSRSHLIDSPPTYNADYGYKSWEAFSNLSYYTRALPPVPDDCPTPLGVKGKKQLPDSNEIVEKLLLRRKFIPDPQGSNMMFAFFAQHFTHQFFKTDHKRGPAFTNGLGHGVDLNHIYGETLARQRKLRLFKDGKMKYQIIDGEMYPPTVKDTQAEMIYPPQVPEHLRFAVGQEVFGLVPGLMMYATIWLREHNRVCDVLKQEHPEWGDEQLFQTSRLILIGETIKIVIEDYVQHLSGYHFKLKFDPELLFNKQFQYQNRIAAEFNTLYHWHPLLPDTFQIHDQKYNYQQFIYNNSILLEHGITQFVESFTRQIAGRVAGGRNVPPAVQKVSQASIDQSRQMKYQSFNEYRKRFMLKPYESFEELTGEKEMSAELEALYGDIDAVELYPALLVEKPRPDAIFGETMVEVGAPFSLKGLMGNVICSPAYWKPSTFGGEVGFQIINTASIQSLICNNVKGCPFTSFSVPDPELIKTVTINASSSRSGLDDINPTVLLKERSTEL
Source text: The transfer of energy from the protein donor to the ligand acceptor is generally seen in strong protein–ligand complexes. In addition to divulging the binding activities, assessments of the energy transfer efficiency can reveal the distance between the ligand and the ligand binding site on the protein [47]. According to Förster theory, the efficiency depends not only on the orientation and distance of the molecules but also on the extent of overlap between the donor emission and acceptor absorption. The distance between the donor and acceptor must be in the 2 to 8 nm range [47, 48]. The overlaps of fluorescence emission spectrum of COX2 with absorption spectrum of compounds DB2, SC2 or YB2 are presented in Figure 5g–i, respectively. The energy transfer efficiency (E) from donor to acceptor was calculated by a widely used method:(6) E=R06/R06+r^6=F0−F/F0 (7) R06=8.79×10^−25κ^2N^−4φJ (8) J=∑^ F(λ)ε(λ)λ^4Δλ/∑^F(λ)Δλ
Here, r is the separation distance between the donor (COX2) and acceptor (DB2, SC2 or YB2). R0 is the Förster critical distance when E = 50%. κ^2 is the orientation space factor. N is the refractive index of medium surrounding the fluorophores. φ is the fluorescence quantum yield of the donor. J is overlap integral of the donor fluorescence emission spectrum and acceptor absorption spectrum. F(λ) is the fluorescence intensity of the protein at the wavelength λ, ε(λ) is the molar absorption coefficient of acceptor at λ. Using the values of κ^2 = 2/3, N = 1.336 and φ = 0.15 [49], J and r were calculated (Table 2).
The fluorescence intensity of the system was measured with a 1.0 cm quartz cell. COX2 protein was dissolved in PBS for a final concentration of 6.0 × 10^−8 mol∙L^−1. DB2, SC2 or YB2 stock solutions were prepared in singleton at 1.5 × 10^−3 mol∙L^−1 in PBS containing 0.1% DMSO. 2.0 mL COX2 solution was separately titrated by continuing additions of 10 μL compounds DB2, SC2 or YB2 solution). After incubation at 298 K or 310 K, fluorescence quenching spectra were recorded in the region 325-450 nm at a scan rate of 1200 nm∙min^−1. The local environment of Tyr and Trp residues was quite sensitive at 280 nm, so the excitation wavelength was set at this wavelength. Typically, 280 nm is also used to measure the changes in protein tertiary structure. The slit widths of emission and excitation were both fixed at 10 nm. To observe spectra behaviors of Tyr and Trp groups of COX2, the wavelength interval between the excitation and emission wavelengths (Δλ) was set as 15 nm and 60 nm, respectively. Three-dimensional fluorescence spectroscopy was obtained for an excitation range of 200–300 nm and an emission range of 325–400 nm. Appropriate buffer solutions, determined under the same operation conditions, were used as blanks. Each spectrum was recorded three times.

EA.hy926 cells [2] = assay: Cytotoxicity of compound SC2, MTT assay; type: cell-based, human
Method: The cytotoxicity of compound SC2 on EA.hy926 cells was detected by 3-(4,5-dimethyl-2-thiazolyl)-2,5-diphenyl-2-H-tetrazolium bromide (MTT) assay.
as §1

Structure (SMILES)	EC50 (EA.hy926 cells [1]; Homo sapiens, EA.hy 926, 4 h) [nM]	J (effective spectral overlap) (COX2)	r (separation distance between COX2 and compound) (COX2) [nm]	cell survival rate compared with control group (EA.hy926 cells [2]; concentrations less than 30 µmol·L^−1)	effect on cells at concentration used in cell-based experiments (EA.hy926 cells [2]; less than 10 µmol·L^−1)	protection from H2O2 induced cell damage (EA.hy926 cells [1]; 5 µmol·L^−1 compound, four pre-chosen H2O2 treatments)	EC50 (EA.hy926 cells [1]) [nM]	protection rate compared with positive controls (fenofibrate and quereetin) (EA.hy926 cells [1]; statistical comparison)
CCCCc1ccc(C(=O)c2c(Br)cc(O)c(O)c2O)cc1 [DB2]	1360 ± 463	1.64 ×10^−13 cm^3∙L∙mol^−1	6.42					
CC(C)(C)c1ccc(C(=O)c2c(Cl)cc(O)c(O)c2O)cc1 [SC2]	6.25 ± 0.415	1.55 ×10^−13 cm^3∙L∙mol^−1	6.62	not significantly different	harmless to cells	protects the cells from H2O2 induced cell damage	6.25 ± 0.415	
CC(C)Cc1ccc(C(=O)c2c(Br)cc(O)c(O)c2O)cc1 [YB2]	418 ± 24.6	1.72 ×10^−13 cm^3∙L∙mol^−1	6.47					no significant difference
